# From US7294715B2, “Aporphine and oxoaporphine compounds and pharmaceutical use thereof” (Lotus Pharmaceutical Co., Ltd., priority 2003, dated 2007)
# Marks after values point to notes of the source that are not given here.
# Assays:
# [1] = Hemodynamic effects (blood pressure, heart rate) in rats; format: in vivo, rat
# [2] = system: Langendorff perfused rat hearts; test: Coronary flow in Langendorff perfused rat hearts; conditions: FIG. 3
# Procedure: Adult male Wistar rats weighing 275-325 g, were intraperitoneally anesthetized with sodium pentobarbital (50 mg·kg^−1) and given heparin (300 Ukg·kg^−1) by the same route. Hearts were rapidly excised and immersed in 37° C. perfusion medium. The aorta was cannulated and retrograde-perfused at 80 mmHg with Tyrode's solution containing 120 mM NaCl, 25 mM NaHCO3, 3 mM KCl, 1.2 mM NaH2PO4, 2.5 mM CaCl2, 1.2 mM MgCl2, and […] 5.5 mM glucose. The perfusate was equilibrated with 95% O2, 5% CO2 at 37° C. Perfusion pressure was monitored using a MLT844/D pressure transducer (Capto, Horten, Norway) connected to a PowerLab (ADInstruments, Castle Hill, Australia). The coronary effluent was collected for the measurement of coronary flow.
# eNOS = test: Western blot analysis for eNOS protein in ischemia-reperfusion rat heart; format: in vivo; conditions: ischemia 25 min, reperfusion 2 h, 1.5 mg/kg at 5 min prior to reperfusion, P<0.05 vs vehicle
# Procedure: To elucidate the effects of the test compounds on the infarct size caused by regional myocardial ischemia and reperfusion, all animals were randomized into 8 study groups. The first group (Sham) comprised of animals not subjected to regional myocardial ischemia (25 min) followed by reperfusion (2 h) and treated with vehicle (1 ml/kg) 5 minutes prior to the onset of reperfusion. The second group of animals were subjected to regional myocardial ischemia (25 min) followed by reperfusion (2 h) and were treated with vehicle (saline, 1 ml/kg). […]
# Hearts were pulverized at −80° C. using liquid nitrogen and a stainless steel pestle and mortar. […] Total protein concentrations were determined using the Bradford method (Bio-Rad, UK). […] Signals were detected using the enhanced chemiluminescence (ECL™) detection system (Cell Signaling Technology, U.S.A.) and autoradiographic film. For quantification of protein expression all blots were reprobed for muscle α-actin expression using 1/2000 dilution of a mouse anti-human actin (muscle antibody (Serotec), followed by incubation with a goat anti-mouse HRP linked secondary antibody ( 1/2000 dilution) (DakoCytomation, Denmark). Densitometry analysis was performed on scanned images (Hewlett Packard Scanjet) and analyzed using Scion Image (Scion Corp, National Institutes of Health, Bethesda, Md.).
# [3] = system: ischemia-reperfusion rabbit; test: Ischemia-reperfusion rabbit mortality; format: in vivo
# MCAO rats = test: Middle cerebral artery occlusion (MCAO) cerebral ischemia lesions in rats; format: in vivo, rat
# Excerpt: The same effects of preventing the ischemia-reperfusion damages with aporphine and oxoaporphine compounds also found in the other organs, such as brain. After Compound 16 or Compound 21, which is a compound of Formula B (where R1, R2, R5, R6 are OMe, R3, R4, R7 are H) was administrated to male Sprague Dawley rats, the effects of test compounds on the artery occlusive cerebral ischemia in the rats were monitored. First, permanent brain ischemia was induced by middle cerebral artery occlusion (MCAO) in the rats. At 0, 6, 24, 48, and 54 hours after the formation of middle cerebral artery occlusion (MCAO), Group I (i.e., the control group) animals were given the solvent (100% DMSO) (1 ml/kg, i.p.); Group II (i.e., the control group) animals were given the distilled water (D.W.) (1 ml/kg, i.p.);Group III animals (NCM-121) were given Compound 16 (1.5 mg/kg, i.p.); Group IV animals (NCM-124) were given Compound 21 (1.7 mg/kg, i.p); Group V animals were given MK-801 (0.3 mg/kg, i.p.), an antagonist of the N-methyl-D-aspartic acid (NMDA) receptor. There were ten rats in each group. Four days after the formation of MCAO, all the rats were sacrificed. Brain sections were made and stained with 2% cresol purple. The areas and volumes of cerebral ischemia lesions in each section were recorded.
smiles,measurement,setting,value
"COc1cc2c(cc1OC)-c1c(OC)c(OC)cc3c1C(C2)N(CCOc1ccccc1OC)CC3 (stereo not drawn) [Compound 16, N-[2-(2-methoxyphenoxyl)]ethylnorglaucine]",duration of blood pressure decrease,[1],about 45 minutes
same,effects on blood pressure,"[1]; 0.5 mg/kg to 50 mg/kg, FIG. 5A",no significant effects
same,effects on heart rate,"[1]; 0.5 mg/kg to 50 mg/kg, FIG. 5B",no significant effects
same,time to recovery of heart rates after drug application,[1]; 50 mg/kg,45 min
same,heart rates after drug,"[1]; 50 mg/kg, from 361.5±9.3 bpm, p<0.05",295.4±16.8 bpm
same,"heart rates, % of baseline values","[1]; 50 mg/kg, p<0.05",81.5±2.8 % of baseline values
same,mean blood pressure after drug,"[1]; at 3 minutes after drug administration, from 74.6±5.7 mmHg",62.9±2.2 mmHg
same,coronary blood flow,[2],increasing coronary blood flow
same,reduction in eNOS protein expression caused by ischemia and reperfusion,eNOS,significantly reduced
same,Died at ischemia period,"[3]; 0.25 mg/kg, total 3, control 0 of 10",0
same,Died at reperfusion period,"[3]; 0.25 mg/kg, total 3, control 3 of 10",1
same,Mortality (%),"[3]; 0.25 mg/kg, total 3, control 30",33.3%
same,Died at ischemia period,"[3]; 2.5 mg/kg, total 6, control 0 of 10",0
same,Died at reperfusion period,"[3]; 2.5 mg/kg, total 6, control 3 of 10",0
same,Mortality (%),"[3]; 2.5 mg/kg, total 6, control 30",0%
same,Infarcted Volume (X ± SEM mm^3),"MCAO rats; IP 1.5 mg/kg × 6, N=10, four days after MCAO, vehicle 100% DMSO 154.17 ± 16.69",60.14 ± 24.49* mm^3
same,% Decrease in total volume of ischemic lesions,"MCAO rats; IP 1.5 mg/kg × 6, vs Group I vehicle (100% DMSO)",60.99%
same,effects in reducing the areas and volumes of cerebral ischemia lesions as compared with MK-801,MCAO rats; comparison in words,more significant effects
